# Patent US8003649B2 (AstraZeneca AB, priority 2007, dated 2011)
# Target: T1, Androgen Receptor (AR) (Homo sapiens, UniProt P10275, T878A)
# T1 construct: cell based immuno-fluorescence assay using the LNCaP prostate epithelial cell line; endogenous in cells; host or cells: LNCaP clone FGC (ATCC CRL-1740)
# T1 sequence (P10275 1-920 T878A): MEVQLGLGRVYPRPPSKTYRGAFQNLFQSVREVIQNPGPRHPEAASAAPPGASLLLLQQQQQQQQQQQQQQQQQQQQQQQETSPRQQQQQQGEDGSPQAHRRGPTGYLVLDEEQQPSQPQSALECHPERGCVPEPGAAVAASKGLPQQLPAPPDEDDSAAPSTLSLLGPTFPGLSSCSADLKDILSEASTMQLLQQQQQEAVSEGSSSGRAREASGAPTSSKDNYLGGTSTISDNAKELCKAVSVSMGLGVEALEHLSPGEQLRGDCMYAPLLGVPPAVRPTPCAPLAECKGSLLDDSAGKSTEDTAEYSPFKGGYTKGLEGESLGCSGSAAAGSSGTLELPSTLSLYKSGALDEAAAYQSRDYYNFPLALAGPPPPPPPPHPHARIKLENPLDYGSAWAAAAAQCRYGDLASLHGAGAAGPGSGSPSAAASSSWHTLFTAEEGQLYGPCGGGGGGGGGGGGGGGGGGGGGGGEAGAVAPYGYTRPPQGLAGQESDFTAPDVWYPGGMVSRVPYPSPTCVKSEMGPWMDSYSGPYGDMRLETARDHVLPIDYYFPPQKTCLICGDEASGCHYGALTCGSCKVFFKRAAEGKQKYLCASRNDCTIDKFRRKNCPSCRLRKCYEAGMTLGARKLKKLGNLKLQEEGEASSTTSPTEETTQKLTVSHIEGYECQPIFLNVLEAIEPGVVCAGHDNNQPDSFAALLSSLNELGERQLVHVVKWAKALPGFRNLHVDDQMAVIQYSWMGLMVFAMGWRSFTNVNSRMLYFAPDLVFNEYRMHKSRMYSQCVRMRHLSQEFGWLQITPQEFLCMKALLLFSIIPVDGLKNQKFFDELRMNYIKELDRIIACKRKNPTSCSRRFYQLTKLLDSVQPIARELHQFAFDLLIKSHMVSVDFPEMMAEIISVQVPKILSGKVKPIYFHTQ
# Test: LNCaP Androgen Receptor Down-regulation Cell Assay (immunofluorescence end point)
# Type: cell-based
# Conditions: LNCaP prostate carcinoma cells, compound incubation 20-22 hours, 50% reduction of the AR signal; read-out: Androgen Receptor Down-regulation Assay (a) IC50/μM
# In short: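 LNCaP cells in medium with 5% charcoal-stripped FBS were plated overnight, then treated with a compound dilution series for 20-22 h at 37° C. After fixation, permeabilisation and immunostaining, AR-associated green fluorescence was quantified by laser-scanning microplate cytometry; AR down-regulation expressed as IC50 from fitted dose-response curves.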
row,DC50 [µM],Compound
1,3.7,"Nc1ccc(CN2CCN(c3ccc4nnc(C(F)(F)F)n4n3)CC2)cc1 [Example 212, 4-((4-(3-(trifluoromethyl)-[1,2,4]triazolo[4,3-b]pyridazin-6-yl)piperazin-1-yl)methyl)aniline]"
2,> 7.3,CC1CN(c2ccc3nnc(C(F)(F)F)n3n2)C(C)CN1Cc1ccc(C#N)cc1 (stereo not shown) [Example 218]
3,1.9,"Fc1ccccc1CCN1CCN(c2ccc3nnc(C(F)(F)F)n3n2)CC1 [Example 229, 6-[4-[2-(2-fluorophenyl)ethyl]piperazin-1-yl]-3-(trifluoromethyl)[1,2,4]triazolo[4,3-b]pyridazine]"
4,2.1,Fc1ccc(CCN2CCN(c3ccc4nnc(C(F)(F)F)n4n3)CC2)cc1 [Example 230]
5,2.1,FC(F)(F)c1nnc2ccc(N3CCN(CCc4ccc(Cl)cc4)CC3)nn12 [Example 231]
6,3.6,FC(F)(F)c1nnc2ccc(N3CCN(CCc4ccccc4Cl)CC3)nn12 [Example 232]
7,1.5,FC(F)(F)c1nnc2ccc(N3CCN(CCc4cccc(Cl)c4)CC3)nn12 [Example 233]
8,2,Fc1cccc(CCN2CCN(c3ccc4nnc(C(F)(F)F)n4n3)CC2)c1 [Example 234]
9,1.9,N#Cc1ccc(CCN2CCN(c3ccc4nnc(C(F)(F)F)n4n3)CC2)cc1 [Example 235]
10,5.3,N#Cc1ccc(CN2CCN(c3ccc4nnc(C(F)F)n4n3)CC2)cc1 [Example 237]
11,5,N#Cc1cccc(CN2CCN(c3ccc4nnc(C(F)F)n4n3)CC2)c1 [Example 238]
12,7.4,CC(F)(F)c1nnc2ccc(N3CCN(Cc4cccc(C#N)c4)CC3)nn12 [Example 242]
13,3.7,CC(F)(F)c1nnc2ccc(N3CCN(Cc4cccc(F)c4)CC3)nn12 [Example 243]
14,23,CCC(F)(F)c1nnc2ccc(N3CCN(Cc4cccc(C#N)c4)CC3)nn12 [Example 246]
15,1.8,FC(F)c1nnc2ccc(N3CCN(Cc4cccc(C(F)(F)F)c4)CC3)nn12 [Example 255]
16,5.6,N#Cc1cc(CN2CCN(c3ccc4nnc(C(F)F)n4n3)CC2)ccc1F [Example 260]
17,25,N#Cc1ccc(CN2CCN(c3ccc4nnc(C(F)F)n4n3)CC2)c(F)c1 [Example 262]

# More lines, now with the values behind:
row,Compound,DC50 [µM]
1,"CC(C)(C)OC(=O)N1CC2CN(c3ccc4nnc(C(F)(F)F)n4n3)CC2C1 (stereo not shown) [Example 211, tert-butyl 5-(3-(trifluoromethyl)-[1,2,4]triazolo[4,3-b]pyridazin-6-yl)hexahydropyrrolo[3,4-c]pyrrole-2(1H)-carboxylate]",8.2
2,"O=C(Nc1ccc(F)cc1)N1CC2CN(c3ccc4nnc(C(F)(F)F)n4n3)CC2C1 (stereo not shown) [Example 213, N-(4-fluorophenyl)-2-[3-(trifluoromethyl)-[1,2,4]triazolo[3,4-f]pyridazin-6-yl]-1,3,3a,4,6,6a-hexahydropyrrolo[3,4-c]pyrrole-5-carboxamide]",4.5
3,"CCS(=O)(=O)N1CC2CN(c3ccc4nnc(C(F)(F)F)n4n3)CC2C1 (stereo not shown) [Example 215, 6-(5-ethylsulfonyl-1,3,3a,4,6,6a-hexahydropyrrolo[3,4-c]pyrrol-2-yl)-3-(trifluoromethyl)-[1,2,4]triazolo[3,4-f]pyridazine]",7.4
4,"C[C@@H]1CN(Cc2ccccc2)[C@@H](C)CN1c1ccc2nnc(C(F)(F)F)n2n1 [Example 216, 6-[(2R,5S)-4-benzyl-2,5-dimethylpiperazin-1-yl]-3-(trifluoromethyl)[1,2,4]triazolo[4,3-b]pyridazine]",6.8
5,"C[C@@H]1CN(Cc2cccnc2)[C@@H](C)CN1c1ccc2nnc(C(F)(F)F)n2n1 [Example 217, 6-[(2R,5S)-2,5-dimethyl-4-(pyridin-3-ylmethyl)piperazin-1-yl]-3-(trifluoromethyl)[1,2,4]triazolo[4,3-b]pyridazine]",3.7
6,CC1CN(c2ccc3nnc(C(F)(F)F)n3n2)C(C)CN1Cc1ccc(F)c(F)c1 (stereo not shown) [Example 219],3.5
7,CC1CN(c2ccc3nnc(C(F)(F)F)n3n2)C(C)CN1Cc1cc(F)cc(F)c1 (stereo not shown) [Example 220],3.6
8,CC1CN(c2ccc3nnc(C(F)(F)F)n3n2)C(C)CN1Cc1ccc(F)c(C#N)c1 (stereo not shown) [Example 222],2.6
9,"C[C@@H]1CN(c2ccc3nnc(C(F)(F)F)n3n2)[C@@H](C)CN1Cc1cccnc1 [Example 223, 6-[(2S,5R)-2,5-dimethyl-4-(pyridin-3-ylmethyl)piperazin-1-yl]-3-(trifluoromethyl)[1,2,4]triazolo[4,3-b]pyridazine]",4.7
10,FC(F)c1nnc2ccc(N3CCN(Cc4cccc(Cl)c4)CC3)nn12 [Example 248],1.7
11,Fc1ccc(CN2CCN(c3ccc4nnc(C(F)F)n4n3)CC2)c(F)c1 [Example 249],6.3
12,Fc1ccc(CN2CCN(c3ccc4nnc(C(F)F)n4n3)CC2)cc1F [Example 250],4.9
13,Fc1cc(F)cc(CN2CCN(c3ccc4nnc(C(F)F)n4n3)CC2)c1 [Example 251],9.3
14,Fc1cccc(F)c1CN1CCN(c2ccc3nnc(C(F)F)n3n2)CC1 [Example 252],8.9
15,COc1ccc(CN2CCN(c3ccc4nnc(C(F)F)n4n3)CC2)c(F)c1 [Example 253],3.7
16,Fc1cccc(CN2CCN(c3ccc4nnc(C(F)F)n4n3)CC2)c1F [Example 256],7.4
17,COc1cc(CN2CCN(c3ccc4nnc(C(F)F)n4n3)CC2)ccc1F [Example 257],9
18,COc1ccc(F)c(CN2CCN(c3ccc4nnc(C(F)F)n4n3)CC2)c1 [Example 258],6.4
19,Fc1ccc(F)c(CN2CCN(c3ccc4nnc(C(F)F)n4n3)CC2)c1 [Example 259],4.8
20,COc1ccc(CN2CCN(c3ccc4nnc(C(F)F)n4n3)CC2)cc1F [Example 261],7.9
21,FC(F)c1nnc2ccc(N3CCN(Cc4csc5ccccc45)CC3)nn12 [Example 264],0.95
22,FC(F)c1nnc2ccc(N3CCN(Cc4c[nH]c5ccccc45)CC3)nn12 [Example 265],3.8
23,"FC(F)c1nnc2ccc(N3CCC(c4c[nH]c5ccccc45)CC3)nn12 [Example 266, 3-(difluoromethyl)-6-[4-(1H-indol-3-yl)piperidin-1-yl][1,2,4]triazolo[4,3-b]pyridazine]",0.63
24,COc1cccc(OC2CCN(c3ccc4nnc(C(F)F)n4n3)CC2)c1 [Example 267],0.85
25,Fc1cccc(OC2CCN(c3ccc4nnc(C(F)F)n4n3)CC2)c1 [Example 268],0.91
26,"C[C@H](c1ccc(F)cc1)N1CCN(c2ccc3nnc(C(F)F)n3n2)CC1 [Example 269, 3-(difluoromethyl)-6-[4-[(1R)-1-(4-fluorophenyl)ethyl]piperazin-1-yl][1,2,4]triazolo[4,3-b]pyridazine]",2
27,"CC(C)(c1ccc(F)cc1)N1CCN(c2ccc3nnc(C(F)F)n3n2)CC1 [Example 271, 3-(difluoromethyl)-6-[4-[1-(4-fluorophenyl)-1-methylethyl]piperazin-1-yl][1,2,4]triazolo[4,3-b]pyridazine]",1.8
28,"Fc1cccc(CN2CC=C(c3ccc4nnc(C(F)(F)F)n4n3)CC2)c1 [Example 272, 6-[1-(3-fluorobenzyl)-1,2,3,6-tetrahydropyridin-4-yl]-3-(trifluoromethyl)-[1,2,4]triazolo[4,3-b]pyridazine]",1.8
29,Fc1ccc(-c2nc(N3CCN(c4ccc5nnc(C(F)(F)F)n5n4)CC3)no2)cc1 [Example 274],6.1
